The values below come from patent US9216968B2, “Heterocyclic derivative and pharmaceutical drug” (NIPPON SHINYAKU CO., LTD., priority 2011, dated 2015).

By IC50 is commonly meant the concentration needed to halve the response being measured.

For assay [1], the target named is human mPGES-1 (Homo sapiens (Human), UniProt O14684). Put plainly: mPGES-1 inhibiting activity (microsome fractions, PGE2 by HTRF). Type of assay: biochemical. Particulars: microsomes from CHO-K1 cells transfected with human mPGES-1; PGH2 1 μM, 4° C., 60 seconds; read-out: mPGES-1 Inhibition IC50. How it is done: mPGES-1 microsome fractions were prepared from CHO-K1 cells transiently transfected with plasmid encoding the human mPGES-1cDNA. Microsomes were diluted with potassium phosphate buffer containing reduced glutathione (pH7.4), and DMSO containing test compound or DMSO alone was added (such that DMSO final concentration would be 1% in each) and incubated at 4° C. for 20 minutes. Then, the enzymatic reactions were initiated by the addition of PGH2 substrate (final concentration 1 μM) and incubated at 4° C. for 60 seconds. The reaction was terminated by the addition of a citrate solution (final citrate concentration 50 mM) containing ferric chloride (final concentration 1 mg/mL). PGE2 production in the enzyme reaction aliquot was measured using HTRF kit (Cisbio International, catalogue #62P2APEC). The solution free of test compound was used as positive control, and the solution free of test compound and microsome sample was used as negative control. 100% activity was defined as PGE2 production in the positive control minus PGE2 production in negative control. IC50 value was calculated by standard method.
human mPGES-1, sequence (O14684 whole entry): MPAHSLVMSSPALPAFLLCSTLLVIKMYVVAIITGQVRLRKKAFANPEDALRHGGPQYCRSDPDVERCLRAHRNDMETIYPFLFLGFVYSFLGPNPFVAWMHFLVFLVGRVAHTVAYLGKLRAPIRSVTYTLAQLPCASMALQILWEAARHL
In general terms: Time-resolved FRET reads energy transfer from a long-lived donor to a nearby acceptor.

Assay [2] relates to A549 cells. Put plainly: Inhibition of PGE2 production in A549 cell (IL-1β stimulated). Type of assay: cell-based, human. The following applies: IL-1β 5 ng/well, PGE2 in culture medium. As for the experimental part:
Human A549 cells were seeded onto a 96-well plate at 2×10^4 cells/100 μL per well and allowed to incubate overnight. After removing the culture medium and washing with phosphate buffered saline, the culture medium was replaced by RPMI culture medium with 3% FBS containing a DMSO solution containing test compound or DMSO alone (such that DMSO final concentration would be […] in each). After incubation for 60 minutes, IL-1β (5 ng/well) was added and incubated at 37° C. for 24 hours. Then, PGE2 in the culture medium was measured using HTRF kit (Cisbio International, catalogue #62P2APEC), and PGF2α in the culture medium was measured using EIA kit (Cayman Chemical Company, catalogue #516011). The solution free of test compound was used as positive control, and the solution free of test compound and IL-1β was used as negative control. 100% activity was defined as PGE2 and PGF2α production in the positive control minus PGE2 and PGF2α production in the negative control. IC50 value was calculated by standard method.

Structures can show the parent of a compound that is named as a salt.

Consider `COCc1nc2c(C(=O)Nc3cccc(C#N)c3C)cc(NC(=O)c3ccccc3C(F)(F)F)cc2[nH]1` [Example 41, N-(3-Cyano-2-methylphenyl)-2-(methoxymethyl)-6-({[2-(trifluoromethyl)phenyl]carbonyl}amino)-1H-benzimidazole-4-carboxamide], for which the IC50 was 52.5 nM in assay [1] and 145 nM in assay [2] (Homo sapiens, A549, 24 h).
For `COCc1nc2c(C(=O)NCc3ccc(C)cc3)cc(NC(=O)c3ccccc3C(F)(F)F)cc2[nH]1` [Example 25, 2-(Methoxymethyl)-N-(4-methylbenzyl)-6-({[2-(trifluoromethyl)phenyl]carbonyl}amino)-1H-benzimidazole-4-carboxamide hydrochloride], in that order: 89 nM and 850 nM.
For `Cc1c(Cl)cccc1NC(=O)c1cc(NC(=O)c2c(Cl)cccc2Br)cc2[nH]c(N(C)C)nc12` [Example 187, 6-{[(2-Bromo-6-chlorophenyl)carbonyl]amino}-N-(3-chloro-2-methylphenyl)-2-(dimethylamino)-1H-benzimidazole-4-carboxamide hydrochloride], the IC50 in assay [1] worked out at 3.6 nM; in assay [2] (Homo sapiens, A549, 24 h), 12.7 nM.
On to `Cc1ccc(NC(=O)c2cc(NC(=O)c3ccccc3C(F)(F)F)cc3[nH]c(N(C)C)nc23)cc1Cl` [Example 202, N-(3-Chloro-4-methylphenyl)-2-(dimethylamino)-6-({[2-(trifluoromethyl)phenyl]carbonyl}amino)-1H-benzimidazole-4-carboxamide hydrochloride], for which the 50% inhibitory concentration (IC50) in assay [1] worked out at 4.9 nM; in assay [2] (Homo sapiens, A549, 24 h), 5.9 nM.
Consider `Cc1c(Cl)cccc1NC(=O)c1cc(NC(=O)c2ccccc2C(F)(F)F)cc2c1nc(NCC(C)(C)CO)n2C` [Example 162, N-(3-Chloro-2-methylphenyl)-2-[(3-hydroxy-2,2-dimethylpropyl)amino]-1-methyl-6-({[2-(trifluoromethyl)phenyl]carbonyl}amino)-1H-benzimidazole-4-carboxamide hydrochloride], for which the IC50 came out at 23.8 nM in assay [1] and 52.2 nM in assay [2] (Homo sapiens, A549, 24 h).
For `COC(C)(C)CNc1nc2c(C(=O)Nc3cccc(Cl)c3C)cc(NC(=O)c3cc(Cl)ccc3Cl)cc2[nH]1` [Example 192, N-(3-Chloro-2-methylphenyl)-6-{[(2,5-dichlorophenyl)carbonyl]amino}-2-[(2-methoxy-2-methylpropyl)amino]-1H-benzimidazole-4-carboxamide hydrochloride], the IC50 in assay [1] is 9.9 nM; in assay [2] (Homo sapiens, A549, 24 h) it was 18.1 nM.
On the same counts, the results for `CCc1nc2c(C(=O)NCc3ccccc3C(F)(F)F)cc(NC(=O)c3ccccc3C(F)(F)F)cc2[nH]1` [Example 19, 2-Ethyl-N-[2-(trifluoromethyl)benzyl]-6-({[2-(trifluoromethyl)phenyl]carbonyl}amino)-1H-benzimidazole-4-carboxamide] are 9.4 nM and 47.8 nM.
`Cc1c(Cl)cccc1NC(=O)c1cc(NC(=O)c2ccccc2C(F)(F)F)cc2[nH]c(C(C)(C)C)nc12` [Example 76, 2-tert-Butyl-N-(3-chloro-2-methylphenyl)-6-({[2-(trifluoromethyl)phenyl]carbonyl}amino)-1H-benzimidazole-4-carboxamide hydrochloride]: the concentration for half-maximal inhibition (IC50) in assay [1] is 0.2 nM; in assay [2] (Homo sapiens, A549, 24 h) it was 5.5 nM.
Turning to `Cc1c(Cl)cccc1NC(=O)c1cc(NC(=O)c2cc(Cl)ccc2Cl)cc2[nH]c([C@H]3CCCO3)nc12` [Example 129, N-(3-Chloro-2-methylphenyl)-6-{[(2,5-dichlorophenyl)carbonyl]amino}-2-[(2R)-tetrahydrofuran-2-yl]-1H-benzimidazole-4-carboxamide hydrochloride], the IC50 in assay [1] turned out to be 59.4 nM; in assay [2] (Homo sapiens, A549, 24 h), 178 nM.
`Cc1c(Cl)cccc1NC(=O)c1cc(NC(=O)c2cc(Cl)ccc2Cl)cc2[nH]c(C3(C)CC3)nc12` [Example 210, N-(3-Chloro-2-methylphenyl)-6-{[(2,5-dichlorophenyl)carbonyl]amino}-2-(1-methylcyclopropyl)-1H-benzimidazole-4-carboxamide hydrochloride]: the IC50 in assay [1] was determined as 4.7 nM; in assay [2] (Homo sapiens, A549, 24 h), 13.8 nM.
Consider `COCc1nc2c(C(=O)Nc3cccc(Cl)c3C)cc(NC(=O)c3c(Cl)cccc3Cl)cc2[nH]1` [Example 98, N-(3-Chloro-2-methylphenyl)-6-{[(2,6-dichlorophenyl)carbonyl]amino}-2-(methoxymethyl)-1H-benzimidazole-4-carboxamide hydrochloride], for which the IC50 in assay [1] was determined as 6 nM; in assay [2] (Homo sapiens, A549, 24 h), 11.9 nM.
On to `Cc1c(Cl)cccc1NC(=O)c1cc(NC(=O)c2ccccc2C(F)(F)F)cc2[nH]c(CC(=O)N3CCCC3)nc12` [Example 132, N-(3-Chloro-2-methylphenyl)-2-[2-oxo-2-(pyrrolidin-1-yl)ethyl]-6-({[2-(trifluoromethyl)phenyl]carbonyl}amino)-1H-benzimidazole-4-carboxamide hydrochloride], for which the 50% inhibitory concentration (IC50) in assay [1] worked out at 2.2 nM; in assay [2] (Homo sapiens, A549, 24 h), 590 nM.
`O=C(Nc1cc(C(=O)NCc2ccccc2C(F)(F)F)c2nc(C3CCCO3)[nH]c2c1)c1ccccc1C(F)(F)F` (stereo in doubt) [Example 67, 2-[(2S)-Tetrahydrofuran-2-yl]-N-[2-(trifluoromethyl)benzyl]-6-({[2-(trifluoromethyl)phenyl]carbonyl}amino)-1H-benzimidazole-4-carboxamide hydrochloride]: the half-maximal inhibitory concentration (IC50) in assay [1] stood at 11 nM; in assay [2] (24 hours, hydrochloride), 56.4 nM.
Consider `Cc1c(Cl)cccc1NC(=O)c1cc(NC(=O)c2ccccc2C(F)(F)F)cc2[nH]c(S(C)(=O)=O)nc12` [Example 180, N-(3-Chloro-2-methylphenyl)-2-(methylsulfonyl)-6-({[2-(trifluoromethyl)phenyl]carbonyl}amino)-1H-benzimidazole-4-carboxamide], for which the IC50 in assay [1] was found to be 1.1 nM; in assay [2] (Homo sapiens, A549, 24 h) it was 774 nM.
With `Cc1c(Cl)cccc1NC(=O)c1cc(NC(=O)c2cc(Cl)ccc2Cl)cc2[nH]c(C3CCCC3)nc12` [Example 125, N-(3-Chloro-2-methylphenyl)-2-cyclopentyl-6-{[(2,5-dichlorophenyl)carbonyl]amino}-1H-benzimidazole-4-carboxamide hydrochloride], the IC50 in assay [1] was found to be 25.6 nM; in assay [2] (Homo sapiens, A549, 24 h), 56.9 nM.
As for `Cc1nc2c(C(=O)NC3CCC3)cc(NC(=O)c3ccccc3C(F)(F)F)cc2[nH]1` [Example 16, N-Cyclobutyl-2-methyl-6-({[2-(trifluoromethyl)phenyl]carbonyl}amino)-1H-benzimidazole-4-carboxamide], the IC50 in assay [1] was 63.9 nM; in assay [2] (Homo sapiens, A549, 24 h), 1300 nM.
As for `COCc1nc2c(C(=O)Nc3cccc(Cl)c3C)cc(NC(=O)c3ccccc3Cl)cc2[nH]1` [Example 95, N-(3-Chloro-2-methylphenyl)-6-{[(2-chlorophenyl)carbonyl]amino}-2-(methoxymethyl)-1H-benzimidazole-4-carboxamide hydrochloride], the concentration for half-maximal inhibition (IC50) was determined as 5.1 nM in assay [1] and 105 nM in assay [2] (Homo sapiens, A549, 24 h).
As to `O=C(Nc1cc2c(c(C(=O)NC3CCCCC3)c1)OCC2)c1ccccc1C(F)(F)F` [Example 7, N-Cyclohexyl-5-({[2-(trifluoromethyl)phenyl]carbonyl}amino)-2,3-dihydro-1-benzofuran-7-carboxamide], the IC50 in assay [1] is 105 nM; in assay [2] (Homo sapiens, A549, 24 h), 342 nM.
Turning to `Cc1ccc(NC(=O)c2cc(NC(=O)c3c(F)cccc3Cl)cc3[nH]c(N(C)C)nc23)cc1Cl` [Example 205, 6-{[(2-Chloro-6-fluorophenyl)carbonyl]amino}-N-(3-chloro-4-methylphenyl)-2-(dimethylamino)-1H-benzimidazole-4-carboxamide hydrochloride], the half-maximal inhibitory concentration (IC50) in assay [1] came out at 3.7 nM; in assay [2] (Homo sapiens, A549, 24 h), 25.6 nM.
Turning to `Cc1c(Cl)cccc1NC(=O)c1cc(NC(=O)c2c(F)cccc2Br)cc2[nH]c(N(C)C)nc12` [Example 186, 6-{[(2-Bromo-6-fluorophenyl)carbonyl]amino}-N-(3-chloro-2-methylphenyl)-2-(dimethylamino)-1H-benzimidazole-4-carboxamide hydrochloride], the IC50 in assay [1] came out at 6.1 nM; in assay [2] (Homo sapiens, A549, 24 h), 13.9 nM.
For `Cc1c(Cl)cccc1NC(=O)c1cc(NC(=O)c2ccccc2C(F)(F)F)cc2[nH]c(N3CC[C@H](N(C)C)C3)nc12` [Example 149, N-(3-Chloro-2-methylphenyl)-2-[(3S)-3-(dimethylamino)pyrrolidin-1-yl]-6-({[2-(trifluoromethyl)phenyl]carbonyl}amino)-1H-benzimidazole-4-carboxamide dihydrochloride], in that order: 1 nM and 43.3 nM.
